Results on one compound are retold here after BindingDB's records for doi:10.1016/j.bmc.2012.08.058 (Purdue University, 2012).

Molecules are shown by their SMILES.

In general, EC50 refers to the concentration needed to bring the measured effect to its halfway point. Usually Ki stands for the equilibrium dissociation constant of an inhibitor or competing ligand from its target. Lower therefore signals a stronger hold on the target.

Experiment [1] has as its target T1, D(3) dopamine receptor (Homo sapiens, UniProt P35462). As to the kind of experiment: Agonist activity at dopamine D3 receptor in human U2OS-D3 cells assessed as EA-tagged beta-arrestin translocation after 1.5 hrs by luminescence based beta-galactosidase assay.
Experiment [2] concerns the target T1, D(3) dopamine receptor. In words: Displacement of [3H]-N-methylspiperone from human dopamine D3 receptor expressed in HEK293 cells after 30 mins by scintillation counting. (Displacement assays read how much labelled ligand stays bound in the presence of the test substance.)
A further experiment deals with D(2) dopamine receptor (Homo sapiens, UniProt P14416). In words: Displacement of [3H]-N-methylspiperone from human dopamine D2long receptor expressed in HEK293 cells after 30 mins by scintillation counting.
Chain of D(2) dopamine receptor (P14416 whole entry): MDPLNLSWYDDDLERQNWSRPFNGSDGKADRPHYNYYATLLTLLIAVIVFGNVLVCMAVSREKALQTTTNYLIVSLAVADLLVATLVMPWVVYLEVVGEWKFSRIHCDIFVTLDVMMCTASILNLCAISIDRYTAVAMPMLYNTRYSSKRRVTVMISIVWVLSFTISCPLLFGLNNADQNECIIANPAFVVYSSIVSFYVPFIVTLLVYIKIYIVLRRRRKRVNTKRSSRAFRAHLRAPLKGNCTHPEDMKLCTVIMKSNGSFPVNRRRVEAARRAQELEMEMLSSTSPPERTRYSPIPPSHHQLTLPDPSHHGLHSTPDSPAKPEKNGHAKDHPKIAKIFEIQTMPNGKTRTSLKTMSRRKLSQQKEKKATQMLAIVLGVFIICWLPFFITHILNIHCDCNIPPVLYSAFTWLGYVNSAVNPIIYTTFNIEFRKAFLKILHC

T1 sequence (P35462 as listed by the source): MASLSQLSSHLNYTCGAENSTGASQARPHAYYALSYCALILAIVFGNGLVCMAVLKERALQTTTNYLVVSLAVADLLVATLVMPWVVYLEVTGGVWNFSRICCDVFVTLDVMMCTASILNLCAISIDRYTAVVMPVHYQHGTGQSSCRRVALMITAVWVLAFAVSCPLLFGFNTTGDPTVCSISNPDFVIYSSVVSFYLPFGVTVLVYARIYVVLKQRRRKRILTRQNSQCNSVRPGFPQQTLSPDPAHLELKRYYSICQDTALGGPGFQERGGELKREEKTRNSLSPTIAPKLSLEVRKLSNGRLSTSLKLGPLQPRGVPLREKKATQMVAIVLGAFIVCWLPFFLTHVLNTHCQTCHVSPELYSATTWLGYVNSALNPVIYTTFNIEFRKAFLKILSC

In the case of `CCCN1C[C@H](c2ccc(O)cc2)C[C@@H]2c3cc(O)c(O)cc3CC[C@H]21`, the EC50 at D(3) dopamine receptor [1] is 46 nM. For the same compound, the Ki on D(3) dopamine receptor [2] turned out to be 1.1 nM; on D(2) dopamine receptor, 160 nM.
